Experiment [1] deals with HepG2 cells. The experiment can be described thus: multiparametric cell-based HCA hepatotoxicity assay. Set-up: species or system human. The conditions noted are these: for IC50: HepG2, 24-hour incubation.
On the set-up of experiment [2]: method as in earlier work. The conditions noted are these: Operetta assay protocol; read-out: median concentration (IC50); cited from earlier work.

Where “and” joins values, the source holds several entries; their conditions need not be identical. Equal entries are not always repeated. Where two headings read alike, the source gives them in different places.

Turning to `N#CC(C#N)=NNc1ccc(OC(F)(F)F)cc1` [FCCP, P-fluoromethoxyphenylhydrazone], the “cell nucleuses (Hoechst 33342) in representative images” value in experiment [1] (3 μM) is “shrunk”. Also, the “mitochondrial mass (MS), intensity of Mitotracker Deep Red FM in representative images” value in experiment [1] (3 μM) is given as “increase”. Moreover, the “increase of plasma membrane permeability (PMP)” value in experiment [1] (30 μM) was found to be 17.5 fold. The IC50 in experiment [1] (read-out: IC50 of cell number (CN)) is 5.18 µM; in experiment [1] (read-out: IC50 of mitochondrial mass (MS)), 7.02 µM; in experiment [1] (read-out: IC50 of mitochondrial membrane potential (MMP)), 0.77 µM and 0.768 µM; in experiment [1] (read-out: IC50 of nuclear area (NA)), 0.642 µM; in experiment [1] (read-out: IC50 of plasma membrane permeability (PMP)), 25.7 µM; in experiment [2], 5.2 µM.
For the compound `CC(=O)Nc1ccc(O)cc1` [acetaminophen], the “increase of plasma membrane permeability (PMP)” value in experiment [1] (100 μM) stood at 61.4 fold. Further, the “increase of nuclear area (NA)” value in experiment [1] (3 mM) is listed as 25.7%. The IC50 in experiment [1] (listed as AAP, read-out: IC50 of cell number (CN)) stood at 1840 µM; in experiment [1] (listed as AAP, read-out: IC50 of mitochondrial mass (MS)), 9780 µM; in experiment [1] (listed as AAP, read-out: IC50 of plasma membrane permeability (PMP)), 7.7 µM; in experiment [1] (Homo sapiens, HepG2, 24 h, read-out: IC50 of cell number (CN)), 1840 µM; in experiment [1] (Homo sapiens, HepG2, 24 h, read-out: IC50 of mitochondrial mass (MS)) it was 9780 µM; in experiment [1] (Homo sapiens, HepG2, 24 h, read-out: IC50 of plasma membrane permeability (PMP)) it was 10 µM. For the same compound, in experiment [2], the IC50 was 1300 µM.
